Experimental findings from patent US20220041582A1, “ISOXAZOLINE COMPOUNDS FOR CONTROLLING INVERTEBRATE PESTS” (FMC Corporation, priority 2018, published 2022) are described below.

Some results are limits rather than exact numbers.

Holding throughout (format): in vivo
Assay [1] has as its system Western Flower Thrips (Frankliniellla occidentalis (Pergande)). The assay is described as follows: Test H: control of Western Flower Thrips through contact and/or systemic means. As to conditions: 50 ppm spray; 6 days; 30% or less plant damage and/or 100% mortality. The protocol:
(§1) Formulation and Spray Methodology for Tests A-H
(§2) Test compounds were formulated using a solution containing 10% acetone, 90% water and 300 ppm Activator 90® non-ionic surfactant (Loveland Products, Loveland, Colo., USA). The formulated compounds were applied in 1 mL of liquid through an atomizer nozzle positioned 1.27 cm (0.5 inches) above the top of each test unit. Test compounds were sprayed at the rates indicated, and each test was replicated three times.
For evaluating control of the Western Flower Thrips (Frankliniellla occidentalis (Pergande)) through contact and/or systemic means, the test unit consisted of a small open container with a 8-9-day-old Soleil bean plant inside.
Test compounds were formulated and sprayed at 250, 50, 10 and 2 ppm. After spraying, the test units were allowed to dry for 1 hour, and then ˜60 thrips (adults and nymphs) were added to each unit. A black, screened cap was placed on top, and the test units were held for 6 days at 25° C. and 45-55% relative humidity. Each test unit was then visually assessed for plant damage and insect mortality.

The subject of assay [2] is green peach aphid (Myzus persicae (Sulzer)). Description: Test E: control of green peach aphid through contact and/or systemic means. As to conditions: 144 h.
Assay [3] relates to cotton melon aphid (Aphis gossypii (Glover)). The assay is described as follows: Test F: control of cotton melon aphid through contact and/or systemic means. Particulars: 144 h.
Assay [4] deals with sweetpotato whitefly (Bemisia tabaci (Gennadius)). The assay is described as follows: Test G: control of sweetpotato whitefly through contact and/or systemic means. Particulars: 312 h.
Assay [5] deals with potato leafhopper (Empoasca fabae (Harris)). Description: Test D: control of potato leafhopper through contact and/or systemic means. Particulars: 144 h. The protocol:
as §1, §2
[…] White sand was added to the top of the soil, and one of the primary leaves was excised prior to application of the test compound.
Test compounds were formulated and sprayed at 250, 50 and 10 ppm. After spraying of the formulated test compound, the test units were allowed to dry for 1 hour before they were post-infested with 5 potato leafhoppers (18-to-21-day-old adults). A black, screened cap was placed on the top of the test unit, and the test units were held for 6 days in a growth chamber at 20° C. and 70% relative humidity. Each test unit was then visually assessed for insect mortality.

In assay [6] the test system is corn planthopper (Peregrinus maidis (Ashmead)). Description: Test C: control of corn planthopper through contact and/or systemic means. Particulars: Peregrinus maidis, 144 h. The protocol: as §1, §2
For evaluating control of corn planthopper (Peregrinus maidis (Ashmead)) through contact and/or systemic means, the test unit consisted of a small open container with a 3-4-day-old corn (maize) plant inside. White sand was added to the top of the soil prior to application of the test compound.
Test compounds were formulated and sprayed at 50 and 10 ppm. After spraying of the formulated test compound, the test units were allowed to dry for 1 h before they were post-infested with ˜15-20 nymphs (18-to-21-day-old). A black, screened cap was placed on the top of each test unit, and the test units were held for 6 days in a growth chamber at 22-24° C. and 50-70% relative humidity. Each test unit was then visually assessed for insect mortality.

In the case of `CCN1OC[C@@H](NC(=O)c2ccc(C3=NOC(c4cc(Cl)cc(Cl)c4)(C(F)(F)F)C3)c3ccncc23)C1=O` (stereo partly shown) [Compound 1], in assay [1], the “control efficacy: plant damage (and/or 100% mortality)” value is given as at most 30%. Further, the mortality at 250 ppm was at least 80% in assay [2], at least 80% in assay [3] and at least 50% in assay [4]. Further, the results for the mortality at 50 ppm in assay [3] and in assay [4] were at least 80% and at least 50%, respectively.

Regarding `COC(=O)[C@@H](C)NC(=O)c1ccc(C2=NOC(c3cc(Cl)c(F)c(Cl)c3)(C(F)(F)F)C2)c2ccncc12` (stereo partly shown) [Compound 6], the mortality at 10 ppm in assay [2] and in assay [3] was at least 80% throughout. The mortality at 50 ppm in assay [2] was at least 80%; in assay [5], at least 80%; in assay [6], at least 80%; in assay [3], at least 80%; in assay [4], at least 50%.

Usually mortality stands for the percentage killed. Read a high mortality as a strong lethal effect.
